# Read-outs that look alike come from different tables or passages of the source.
# System: HIV-1 (NL4-3 strain)
# Assay: microbe, parasite or virus in culture
# Type: cell-based
# Settings: MT4-GFP cells infected with HIV-1 NL4-3, IP or IC50 from 4-parameter dose response curve
# [1] = Human immunodeficiency virus 1, NL43, 0% normal human serum (NHS), read-out: WILD TYPE CELL ASSAY Viking IP (0% NHS)
# [2] = Human immunodeficiency virus 1, NL43, 100% normal human serum (NHS), read-out: WILD TYPE CELL ASSAY Viking IP (100% NHS)
# [3] = 0% normal human serum (NHS), read-out: WILD TYPE CELL ASSAY Viking IP (0% NHS)
# [4] = 100% normal human serum (NHS), read-out: WILD TYPE CELL ASSAY Viking IP (100% NHS)
SMILES,IC50 [1] [nM],IC50 [2] [nM],IC50 [3] [nM],IC50 [4] [nM]
Cc1nc(CNC(=O)c2cn3c(c(O)c2=O)C(=O)[C@@]2(C)CCCO[C@H]2C3)sc1C [Compound 31],48,> 8400,–,–
COCCC[C@]1(C)C(=O)c2c(O)c(=O)c(C(=O)NCc3ccccc3F)cn2C[C@@H]1OC [Compound 86],–,–,1.3,18
COCC[C@]1(C)C(=O)c2c(O)c(=O)c(C(=O)NCc3cccc(Cl)c3F)cn2C[C@@H]1OC [Compound 65],–,–,0.8,34
C[C@]12CCCO[C@H]1Cn1cc(C(=O)NCc3ccc(F)cc3F)c(=O)c(O)c1C2=O [Compound 7],2.2,–,–,154
COCC[C@@]1(C)C(=O)c2c(O)c(=O)c(C(=O)NCc3ccccc3F)cn2C[C@@H]1OC [Compound 67],–,–,1.7,154
"C[C@]12CCCO[C@H]1Cn1cc(C(=O)NCc3cccc(Cl)c3F)c(=O)c(O)c1C2=O (single isomer, unassigned) [Compound 26]",1.1,2550,–,–
COCC[C@]1(C)C(=O)c2c(O)c(=O)c(C(=O)NCc3ccc(F)cc3F)cn2C[C@@H]1OC [Compound 60],2.9,2230,–,–
C[C@@]12CCCC[C@]1(O)Cn1cc(C(=O)NCc3ccc(F)c(Cl)c3)c(=O)c(O)c1C2=O [Compound 96],6.2,> 8400,–,–
COC12CCCC1(C)C(=O)c1c(O)c(=O)c(C(=O)NCc3ccc(F)c(F)c3F)cn1C2 (stereo not drawn) [Compound 107],5.7,4930,–,–
COCCC[C@@]1(C)C(=O)c2c(O)c(=O)c(C(=O)NCc3ccc(F)cc3F)cn2C[C@@H]1OC [Compound 76],0.9,35,–,–
COCC[C@]1(C)C(=O)c2c(O)c(=O)c(C(=O)NCc3ccccc3F)cn2C[C@@H]1OC [Compound 69],–,–,1.2,24
C[C@@]12CCCC[C@]1(O)Cn1cc(C(=O)NCc3ccc(F)cc3F)c(=O)c(O)c1C2=O [Compound 94],1.8,282,–,–
C[C@]12COCO[C@H]1Cn1cc(C(=O)NCc3ccc(F)cc3F)c(=O)c(O)c1C2=O [Compound 13],3.8,124,–,–
O=C(NCc1ccc(F)cc1F)c1cn2c(c(O)c1=O)C(=O)C1CCOC1C2 (stereo not drawn) [Compound 10],66,–,–,–
"C[C@@]12CCCCO[C@@H]1Cn1cc(C(=O)NCc3c(F)cc(F)cc3F)c(=O)c(O)c1C2=O (single isomer, unassigned) [Compound 41]",2,–,–,34
COC1Cn2cc(C(=O)NCc3ccc(F)cc3F)c(=O)c(O)c2C(=O)C1(C)C (stereo not drawn) [Compound 5],2.6,102,–,–
CC[C@]12CCCO[C@@H]1Cn1cc(C(=O)NCc3ccc(F)cc3F)c(=O)c(O)c1C2=O [Compound 120],0.8,116,–,–
CC1(C)C(=O)c2c(O)c(=O)c(C(=O)NCc3ccc(F)cc3F)cn2CC1O (stereo not drawn) [Compound 4],74,1850,–,–
"C[C@]12CCCCO[C@@H]1Cn1cc(C(=O)NCc3cccc(Cl)c3F)c(=O)c(O)c1C2=O (single isomer, unassigned) [Compound 45]",2.3,–,–,4750
COCCC[C@]1(C)C(=O)c2c(O)c(=O)c(C(=O)NCc3c(F)cc(F)cc3F)cn2C[C@@H]1OC [Compound 90],–,–,0.8,13
COC12CCCC1(C)C(=O)c1c(O)c(=O)c(C(=O)NCc3ccc(F)cc3F)cn1C2 (stereo not drawn) [Compound 105],3.5,2290,–,–
C[C@]12CCCO[C@H]1Cn1cc(C(=O)NCc3ccc(F)cc3F)c(=O)c(O)c1C2=O [Compound 8],–,–,1.8,500
COC[C@@]1(C)C(=O)c2c(O)c(=O)c(C(=O)NCc3ccc(F)cc3F)cn2C[C@@H]1OC [Compound 56],3.4,–,–,342
"C[C@]12CCCO[C@@H]1Cn1cc(C(=O)NCc3ccc(F)cc3F)c(=O)c(O)c1C2=O (single isomer, unassigned) [Compound 33]",–,–,0.5,281
CC1(C)CCn2cc(C(=O)NCc3ccc(F)cc3)c(=O)c(O)c2C1=O [Compound 2],27,–,–,–
COCCC[C@@]1(C)C(=O)c2c(O)c(=O)c(C(=O)NCc3ccc(F)cc3F)cn2C[C@@H]1OC [Compound 77],–,–,1.2,60
COC[C@]1(C)C(=O)c2c(O)c(=O)c(C(=O)NCc3ccc(F)cc3F)cn2C[C@@H]1OC [Compound 54],–,–,1.8,55
"C[C@]12CCCO[C@H]1Cn1cc(C(=O)NCc3ccc(F)cc3)c(=O)c(O)c1C2=O (single isomer, unassigned) [Compound 19]",4.6,709,–,–

SMILES,IC50 [1] [nM],IC50 [2] [nM],IC50 [3] [nM],IC50 [4] [nM]
COCCCO[C@]12CCCC[C@@]1(C)C(=O)c1c(O)c(=O)c(C(=O)NCc3ccc(F)cc3F)cn1C2 [Compound 117],2.5,1440,–,–
COCCC[C@@]1(C)C(=O)c2c(O)c(=O)c(C(=O)NCc3c(F)cc(F)cc3F)cn2C[C@@H]1OC [Compound 92],1.3,59,–,–
"C[C@]12CCCO[C@H]1Cn1cc(C(=O)NCc3cc(F)c(F)c(F)c3)c(=O)c(O)c1C2=O (single isomer, unassigned) [Compound 28]",4.4,> 8400,–,–
COCC[C@@]1(C)C(=O)c2c(O)c(=O)c(C(=O)NCc3c(F)cccc3F)cn2C[C@@H]1OC [Compound 71],–,–,2.2,89
"C[C@]12CCCO[C@H]1Cn1cc(C(=O)NCc3c(F)cccc3F)c(=O)c(O)c1C2=O (single isomer, unassigned) [Compound 22]",2.7,251,–,–
"C[C@@]12CCCO[C@@H]1Cn1cc(C(=O)NCc3c(F)cc(F)cc3F)c(=O)c(O)c1C2=O (single isomer, unassigned) [Compound 14]",0.7,26,–,–
COCC[C@@]1(C)C(=O)c2c(O)c(=O)c(C(=O)NCc3cccc(Cl)c3F)cn2C[C@@H]1OC [Compound 62],0.9,481,–,–
CC12CCCC1(O)Cn1cc(C(=O)NCc3ccc(F)cc3F)c(=O)c(O)c1C2=O (stereo not drawn) [Compound 104],3.6,343,–,–
"C[C@@]12CCCCO[C@@H]1Cn1cc(C(=O)NCc3ccc(F)cc3F)c(=O)c(O)c1C2=O (single isomer, unassigned) [Compound 40]",–,–,1.5,442
CO[C@]12CCCCC[C@@]1(C)C(=O)c1c(O)c(=O)c(C(=O)NCc3ccc(F)cc3F)cn1C2 [Compound 119],2.1,2060,–,–
COCCC[C@@]1(C)C(=O)c2c(O)c(=O)c(C(=O)NCc3cccc(Cl)c3F)cn2C[C@@H]1OC [Compound 80],1.1,–,–,101
"C[C@]12CCCO[C@@H]1Cn1cc(C(=O)NCc3ccc(F)cc3F)c(=O)c(O)c1C2=O (single isomer, unassigned) [Compound 34]",–,–,1.7,1500
C[C@]12CCCCO[C@H]1Cn1cc(C(=O)NCc3cccc(Cl)c3F)c(=O)c(O)c1C2=O [Compound 37],1.5,–,–,80
"C[C@]12CCCO[C@H]1Cn1cc(C(=O)NCc3c(F)cc(F)cc3F)c(=O)c(O)c1C2=O (single isomer, unassigned) [Compound 23]",1.5,1260,–,–
COCCO[C@@]12CCCC[C@]1(C)C(=O)c1c(O)c(=O)c(C(=O)NCc3ccc(F)cc3F)cn1C2 [Compound 114],1.9,137,–,–
"C[C@]12CCCCO[C@@H]1Cn1cc(C(=O)NCc3ccc(F)cc3F)c(=O)c(O)c1C2=O (single isomer, unassigned) [Compound 44]",–,–,1.9,316
COCCC[C@]1(C)C(=O)c2c(O)c(=O)c(C(=O)NCc3c(F)cccc3F)cn2C[C@@H]1OC [Compound 82],–,–,4.1,160
COC[C@@]1(C)C(=O)c2c(O)c(=O)c(C(=O)NCc3ccc(F)cc3F)cn2C[C@@H]1OC [Compound 57],–,–,4.7,3500
"C[C@]12CCCCO[C@@H]1Cn1cc(C(=O)NCc3ccc(F)cc3F)c(=O)c(O)c1C2=O (single isomer, unassigned) [Compound 43]",3.2,–,–,2000
"C[C@]12CCCO[C@H]1Cn1cc(C(=O)NCc3ccc(F)c(F)c3F)c(=O)c(O)c1C2=O (single isomer, unassigned) [Compound 20]",3.5,839,–,–
C[C@@]12CC=CCO[C@@H]1Cn1cc(C(=O)NCc3ccc(F)cc3F)c(=O)c(O)c1C2=O [Compound 47],1.3,–,–,70
"C[C@]12CCCO[C@H]1Cn1cc(C(=O)NCc3ccc(F)c(Br)c3)c(=O)c(O)c1C2=O (single isomer, unassigned) [Compound 25]",4.2,> 8400,–,–
"C[C@@]12CCCO[C@@H]1Cn1cc(C(=O)NCc3ccc(F)c(F)c3F)c(=O)c(O)c1C2=O (single isomer, unassigned) [Compound 17]",2.9,117,–,–
COCCC[C@]1(C)C(=O)c2c(O)c(=O)c(C(=O)NCc3ccccc3F)cn2C[C@@H]1OC [Compound 87],–,–,8,269
COCCC[C@@]1(C)C(=O)c2c(O)c(=O)c(C(=O)NCc3c(F)cccc3F)cn2C[C@@H]1OC [Compound 84],1.8,31,–,–
COC12CCCC1(C)C(=O)c1c(O)c(=O)c(C(=O)NCc3ccc(F)cc3)cn1C2 (stereo not drawn) [Compound 106],3.3,3340,–,–
C[C@@]12CCCCC[C@@]1(O)Cn1cc(C(=O)NCc3ccc(F)cc3F)c(=O)c(O)c1C2=O [Compound 99],3.7,616,–,–
